Some results are limits rather than exact numbers.

The target in assay [1] is T1, murine MEKK2 (mMEKK2) (Mus musculus, UniProt Q61083).
T1 sequence (Q61083 1-619): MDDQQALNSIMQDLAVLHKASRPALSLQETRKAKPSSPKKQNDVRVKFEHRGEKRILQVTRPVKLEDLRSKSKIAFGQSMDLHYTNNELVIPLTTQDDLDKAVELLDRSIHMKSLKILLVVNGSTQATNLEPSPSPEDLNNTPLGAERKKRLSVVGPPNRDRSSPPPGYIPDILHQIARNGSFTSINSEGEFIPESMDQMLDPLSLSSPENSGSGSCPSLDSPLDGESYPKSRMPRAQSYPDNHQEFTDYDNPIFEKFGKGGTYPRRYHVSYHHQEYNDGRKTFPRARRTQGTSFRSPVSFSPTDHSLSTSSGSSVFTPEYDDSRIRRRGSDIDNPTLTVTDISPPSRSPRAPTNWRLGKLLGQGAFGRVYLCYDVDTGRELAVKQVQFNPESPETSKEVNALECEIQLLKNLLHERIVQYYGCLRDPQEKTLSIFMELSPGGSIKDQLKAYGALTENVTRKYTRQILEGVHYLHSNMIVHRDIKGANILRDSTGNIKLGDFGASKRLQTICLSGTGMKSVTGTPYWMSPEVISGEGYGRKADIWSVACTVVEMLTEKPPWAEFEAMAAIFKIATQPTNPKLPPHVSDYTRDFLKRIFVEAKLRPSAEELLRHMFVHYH
Briefly: TR-FRET kinase assay (mMEKK2/MBP). It counts as biochemical. The following applies: substrate biotin MBP, 60 minutes at room temperature. The procedure, abridged:
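mMEKK2 was preincubated 10 min with compound in pH 7.5 Hepes/MgCl2/DTT/vanadate buffer, then biotin-MBP, anti-phospho-MBP antibody and ATP (5 uM solution added) were added and the reaction ran 60 min at room temperature. After EDTA stop, europium anti-mouse IgG and Cy5-streptavidin were added and TR-FRET was read at 615/665 nm.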

Assay [2] deals with T1, murine MEKK2 (mMEKK2). Briefly: MEKK2 PhosphoELISA (mMEKK2/MKK4). The format is biochemical. The following applies: substrate MKK4/SKK1 (unactive), ATP final 10 μM, O.D. 450 nm. An excerpt: Another useful method for assessing protein kinase inhibition, and specifically MEKK2 inhibition, of compounds of the invention involves the MEKK2 phospho-antibody enzyme-linked immunosorbent assay (PhosphoELISA). This screening panel, which involves relatively few steps, is a useful indicator of potential inhibitors of MEKK2. Reactions to murine MEKK2 are observed as optical density measurements at an absorbance of 450 nm. Inhibitory activities can be expressed in terms of IC50, where IC50 is the molar concentration of compound required to inhibit protein kinase binding by 50%.
A phospho-antibody enzyme-linked immunosorbent assay (PhosphoELISA) was used to screen potential inhibitors of MEKK2. The assay was performed as follows: Compounds to be tested were weighed and solubilized in DMSO (Sigma) to a stock concentration of 10 mM. Serial dilutions starting from 1 mM were prepared with additional DMSO. These dilutions were further diluted to 250 μM in kinase reaction buffer [20 mM Hepes pH 7.5, 5 mM MgCl2, 1 mM DTT (Dithiothreitol-Sigma), 1 mM NaVO4 (sodium vanadate- Sigma). A 25 μl aliquot of this solution was transferred to a glutathione coated 96-well microplate (Pierce). A stock aliquot containing 50-125 ng of murine MEKK2 (mMEKK2) was added to each well and incubated on the microplate for 10 minutes at room temperature. A 25 μl solution of MKK4/SKK1 (unactive) was diluted 1:200 in kinase assay buffer and added to the reaction plate followed by 50 μl of 25 μM ATP (adenosine triphosphate) to afford a final well concentration of 10 μM. The reaction was allowed to proceed for 60 minutes at room temperature before washing 3 times with wash buffer [100 mM phosphate pH 7.5, 0.05% TWEEN 20 (Sigma)]. A solution of anti-phospho MKK4/SEK1 antibody (Calbiochem) and biotin anti rabbit IgG (Jackson Immunoresearch) was diluted 1:2500 in kinase reaction buffer and added to the appropriate wells. The reaction was incubated for 60 minutes at room temperature. The microplate was washed 3 times with wash buffer and 100 ul of streptavidin horseradish peroxidase (HRP-Pierce) was added and incubated for 30 minutes at room temperature. The microplate was washed 3 times with wash buffer and 100 μl of TMB (3,3′,5,5′-tetramethylbenzidine-Sigma) was added. The assay was allowed to develop for 15-20 minutes then the reaction was stopped with the addition of 100 μl of 0.2 N sulfuric acid. The optical density (O.D.) of the plate was read on the Victor™ plate reader using the absorbance at 450 nm.

Turning to `N#Cc1c(-c2ccccc2C(F)(F)F)nc(SCc2cccc(NC(=O)c3ccc(Cl)c(Cl)c3)c2)[nH]c1=O` [Example 2ee, 3,4-Dichloro-N-{3-[5-cyano-6-oxo-4-(2-trifluoromethyl-phenyl)-1,6-dihydro-pyrimidin-2-ylsulfanylmethyl]-phenyl}-benzamide], the IC50 against murine MEKK2 (mMEKK2) [1] is under 10 µM; at murine MEKK2 (mMEKK2) [2], under 1 µM.

(Values after US20060100226A1, “2-Thiopyrimidinones as therapeutic agents” (priority 2004, published 2006).)
